Assay results as given in patent publication US6720342B2, “Heterocyclic compounds and their preparation and use” (Novo Nordisk A/S, priority 1996, dated 2004).
Structures can show the parent of a compound that is named as a salt.

Experiments:
[1] = molecular target: muscarinic acetylcholine receptors; test: Inhibition of specific binding of 3H-Oxotremorine-M (3H-Oxo) to rat cortex membranes; settings: rat cortex homogenate, 1.0 nM 3H-Oxotremorine, 30 min at 25° C.
Description: The pharmacological properties of the compounds of the invention can be illustrated by determining their capability to inhibit the specific binding of ^3H-Oxotremorine-M (^3H-Oxo). Birdsdall N. J. M., Hulme E. C., and Burgen A. S. V. (1980). “The Character of Muscarinic Receptors in Different Regions of the Rat Brain”. Proc. Roy. Soc. London (Series B) 207, 1.
^3H-Oxo labels muscarinic receptor in the CNS (with a preference for agonist domains of the receptors). Three different sites are labelled by ^3H-Oxo. […] Using the present experimental conditions only the high and medium affinity sites are determined.
The inhibitory effects of compounds on ^3H-Oxo binding reflects the affinity for muscarinic acetylcholine receptors.
(§1) All preparations are performed at 0-4° C. unless otherwise indicated. Fresh cortex (0.1-1 g) from male Wistar rats (150-250 g) is homogenized for 5-10 s in 10 ml 20 mM Hepes pH: 7.4, with an Ultra-Turrax homogenizer. The homogenizer is rinsed with 10 ml of buffer and the combined suspension centrifuged for 15 min. at 40,000×g. The pellet is washed three times with buffer. In each step the pellet is homogenized as before in 2×10 ml of buffer and centrifuged for 10 min. at 40,000×g.
The final pellet is homogenized in 20 mM Hepes pH: 7.4 (100 ml per g of original tissue) and used for binding assay. Aliquots of 0.5 ml is added 25 μl of test solution and 25 μl of ^3H-Oxotremorine (1.0 nM, final concentration) mixed and incubated for 30 min. at 25° C. Non-specific binding is determined in triplicate using arecoline (1 μg/ml, final concentration) as the test substance. After incubation samples are added 5 ml of ice-cold buffer and poured directly onto Whatman GF/C glass fiber filters under suction and immediately washed 2 times with 5 ml of ice-cold buffer. The amount of radioactivity on the filters are determined by conventional liquid scintillation counting. Specific binding is total binding minus non specific binding.
Test substances are dissolved in 10 ml water (if necessary heated on a steambath for less than 5 min.) at a concentration of 2.2 mg/ml. 25-75% inhibition of specific binding must be obtained before calculation of IC50.
The test value will be given as IC50 (the concentration (nM) of the test substance which inhibits the specific binding of ^3H-Oxo by 50%).
(§2) IC50=(applied test substance concentration)×(Cx/Co−Cx)nM
(§3) where Co is specific binding in control assays and Cx is the specific binding in the test assay. (The calculations assume normal mass-action kinetics).

[2] = molecular target: T1, muscarinic receptors (M1-site, pirenzepine sensitive site) (Rattus norvegicus, UniProt P08482); test: Inhibition of 3H-PRZ (pirenzepine, [N-methyl-3H]) binding to rat cerebral cortex membranes; settings: 1.0 nM 3H-Pirenzepine, 60 min at 20° C.
T1 construct: Fresh cortex (0.1-1 g) from male Wistar rats (150-200 g) is homogenized; from tissue; host or cells: rat (male Wistar) cerebral cortex membranes
T1 sequence (P08482 1-460): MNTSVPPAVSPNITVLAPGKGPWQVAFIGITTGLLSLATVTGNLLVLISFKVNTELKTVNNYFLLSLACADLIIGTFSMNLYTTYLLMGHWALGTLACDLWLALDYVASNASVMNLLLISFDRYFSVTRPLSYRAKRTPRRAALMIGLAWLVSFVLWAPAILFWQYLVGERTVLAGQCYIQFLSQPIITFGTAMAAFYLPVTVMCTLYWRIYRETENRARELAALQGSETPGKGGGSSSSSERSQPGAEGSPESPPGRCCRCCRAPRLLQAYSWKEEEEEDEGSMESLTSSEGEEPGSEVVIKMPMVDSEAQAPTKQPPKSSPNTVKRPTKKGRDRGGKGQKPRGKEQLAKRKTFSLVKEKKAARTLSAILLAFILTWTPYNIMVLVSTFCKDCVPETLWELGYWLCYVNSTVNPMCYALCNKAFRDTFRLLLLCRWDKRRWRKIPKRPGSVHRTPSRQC
Experimental: Furthermore the pharmacological properties of the compounds of the invention can also be illustrated by determining their capability to inhibit ^3H-PRZ (pirenzepine, [N-methyl-^3H]) binding to rat cerebral cortex membranes. Pirenzepine binds selectively to subtype of muscarinic receptors. Historically the type is named the M1-site, whereas pirenzepine sensitive site would be more appropriate. Although selective for M1-sites pirenzepine also interact with M2-sites.
as §1, with “rats (150-200” for “rats (150-250”, “5-10 s.” for “5-10 s”, “with 2×10” for “with 10”, “15 min” for “15 min.”, “in 3×10” for “in 2×10”, “10 min” for “10 min.”
The final pellet is homogenized in 20 mM Hepes pH: 7.4 (100 ml per g of original tissue) and used for binding assay. Aliquots of 0.5 ml is added 20 μl of test solution and 25 μl of ^3H-Pirenzepine (1.0 nM, final conc.), mixed and incubated for 60 min at 20° C. Non-specific binding is determined in triplicate using atropine (1 μg/ml, final conc.) as the test substance. After incubation samples are added 5 ml of ice-cold buffer and poured directly onto Whatman GF/C glass fiber filters under suction and immediately washed 2 times with 5 ml of ice-cold buffer. The amount of radioactivity on the filters are determined by conventional liquid scintillation counting. Specific binding is total binding minus non-specific binding.
Test substances are dissolved in 10 ml water, at a concentration of 0.22 mg/ml. 25-75% inhibition of specific binding must be obtained before calculation of IC50.
The test value will be given as IC50 (the concentration (nM) of the test substance which inhibits the specific binding of ^3H-PRZ by 50%).
as §2, §3

Row | Structure (SMILES) | melting point | IC50 [1] | IC50 [2]
1 | CCCSc1nsnc1OC1CN2CCC1C2 (stereo not drawn) (as salt: oxalate) [Compound 2, Endo 3-(3-propylthio-1,2,5-thiadiazol-4-yloxy)-1-azabicyclo[2.2.1]heptane, oxalate] | 136 to 137 °C | – | –
2 | C(#Cc1ccccc1)COc1nsnc1OC1CN2CCC1C2 (stereo not drawn) (as salt: oxalate) [Compound 5, Endo 3-(3-[3-phenyl-2-propynyl-1-oxy]-1,2,5-thiadiazol-4-yloxy)-1-azabicyclo[2.2.1]heptane, oxalate] | 158 to 159 °C | – | –
3 | COc1cccc(C#CCOc2nsnc2OC2CN3CCC2C3)c1 (stereo not drawn) (as salt: oxalate) [Compound 6, Endo 3-(3-[3-(3-methoxyphenyl)-2-propynyl-1-oxy]-1,2,5-thiadiazol-4-yloxy)-1-azabicyclo[2.2.1]heptane, oxalate] | 142 to 143 °C | – | –
4 | CC(C)=CCOc1nsnc1OC1CN2CCC1C2 (stereo not drawn) (as salt: oxalate) [Compound 7, Endo 3-(3-[3-methyl-2-butenyl-1-oxy]-1,2,5-thiadiazol-4-yloxy)-1-azabicyclo[2.2.1]heptane, oxalate] | 112 to 115 °C | – | –
5 | C(CC1CC1)Oc1nsnc1OC1CN2CCC1C2 (stereo not drawn) (as salt: oxalate) [Compound 8, Endo 3-(3-[2-cyclopropylethyl-1-oxy]-1,2,5-thiadiazol-4-yloxy)-1-azabicyclo[2.2.1]heptane, oxalate] | 132 to 133 °C | – | –
6 | Fc1ccc(COc2nsnc2OC2CN3CCC2C3)cc1 (stereo not drawn) (as salt: oxalate) [Compound 9, Endo 3-(3-[4-fluorobenzyloxy]-1,2,5-thiadiazol-4-yloxy)-1-azabicyclo-[2.2.1]heptane, oxalate] | 144 to 145 °C | – | –
7 | CC=CCOc1nsnc1OC1CN2CCC1C2 (stereo not drawn) (as salt: oxalate) [Compound 10, Endo 3-(3-[2-butenyl-1-oxy]-1,2,5-thiadiazol-4-yloxy)-1-azabicyclo[2.2.1]heptane, oxalate] | 129 to 131 °C | – | –
8 | CC#CCOc1nsnc1OC1CN2CCC1C2 (stereo not drawn) (as salt: oxalate) [Compound 11, Endo 3-(3-[2-butynyl-1-oxy]-1,2,5-thiadiazol-4-yloxy)-1-azabicyclo[2.2.1]heptane, oxalate] | 194 to 196 °C | – | –
9 | CSCCOc1nsnc1OC1CN2CCC1C2 (stereo not drawn) (as salt: oxalate) [Compound 12, Endo 3-(3-methylthioethoxy-1,2,5-thiadiazol-4-yloxy)-1-azabicyclo-[2.2.1]heptane, oxalate] | 117 to 119 °C | – | –
10 | COCCOc1nsnc1OC1CN2CCC1C2 (stereo not drawn) (as salt: oxalate) [Compound 13, Endo 3-(3-methoxyethoxy-1,2,5-thiadiazol-4-yloxy)-1-azabicyclo[2.2.1]heptane, oxalate] | 139 to 141 °C | – | –
11 | CC(C#Cc1ccc(F)cc1)=CCOc1nsnc1OC1CN2CCC1C2 (stereo not drawn) [Compound 21, Endo (Z)-3-(3-(5-(4-fluorophenyl)-3-methyl-2-penten-4-yn-1-yloxy)-1,2,5-thiadiazol-4-yloxy)-1-azabicyclo[2.2.1]heptane] | – | 302 nM | 100 nM
12 | C(#Cc1cccnc1)COc1nsnc1OC1CN2CCC1C2 (stereo not drawn) [Compound 23, Endo 3-(3-(3-pyridyl)-2-propyn-1-yloxy)-1,2,5-thiadiazol-4-yloxy)-1-azabicyclo[2.2.1]heptane, dioxalate] | – | 1.6 nM | 13 nM
13 | C(#Cc1ccccn1)COc1nsnc1OC1CN2CCC1C2 (stereo not drawn) [Compound 25, Endo 3-(3-(2-pyridyl)-2-propyn-1-yloxy)-1,2,5-thiadiazol-4-yloxy)-1-azabicyclo[2.2.1]heptane, dioxalate] | – | 1.7 nM | 4.5 nM
14 | C(#Cc1ccoc1)COc1nsnc1OC1CN2CCC1C2 (stereo not drawn) [Compound 26, Endo 3-(3-(3-(3-furyl)-2-propyn-1-yloxy)-1,2,5-thiadiazol-4-yloxy)-1-azabicyclo[2.2.1]heptane, oxalate] | – | 1.3 nM | 3.9 nM
15 | FC(F)(F)C(F)(F)C(F)(F)COc1nsnc1OC1CN2CCC1C2 (stereo not drawn) [Compound 27, Endo 3-(3-(2,2,3,3,4,4,4-heptafluorobutyl-1-oxy)-1,2,5-thiadiazol-4-yloxy)-1-azabicyclo[2.2.1]heptane, oxalate] | – | 8.3 nM | 5.3 nM
16 | FC(F)(F)CCSc1nsnc1OC1CN2CCC1C2 (stereo not drawn) [Compound 29, Endo 3-(3-(3,3,3-trifluoropropylthio)-1,2,5-thiadiazol-4-yloxy)-1-azabicyclo-[2.2.1]heptane, oxalate] | – | 3.1 nM | 9.1 nM
17 | N#CCCSc1nsnc1OC1CN2CCC1C2 (stereo not drawn) [Compound 32, Endo 3-(3-[2-cyanoethylthio]-1,2,5-thiadiazol-4-yloxy)-1-azabicyclo-[2.2.1]heptane, oxalate] | – | 3.1 nM | 34 nM
18 | Fc1ccc(CSc2nsnc2OC2CN3CCC2C3)c(F)c1 (stereo not drawn) [Compound 33, Endo 3-(3-[2,4-difluorobenzylthio]-1,2,5-thiadiazol-4-yloxy)-1-azabicyclo-[2.2.1]heptane, oxalate] | – | 83 nM | 16 nM
19 | C(#Cc1ccsc1)COc1nsnc1OC1CN2CCC1C2 (stereo not drawn) [Compound 36, Endo 3-(3-[3-(3-thienyl)-2-propyn-1-yloxy]-1,2,5-thiadiazol-4-yloxy)-1-azabicyclo[2.2.1]heptane, oxalate] | – | 1 nM | 4.7 nM
20 | C(#Cc1cccs1)COc1nsnc1O[C@H]1CN2CC[C@@H]1C2 [Compound 37, Endo 3-(3-[3-(2-thienyl)-2-propyn-1-yloxy]-1,2,5-thiadiazol-4-yloxy)-1-azabicyclo[2.2.1]heptane, oxalate] | – | 2.2 nM | 8.7 nM
21 | COc1cccc(C#CC(Oc2nsnc2OC2CN3CCC2C3)C(C)C)c1 (stereo not drawn) [Compound 39, Endo 3-(3-[1-(3-methoxyphenyl)-4-methyl-1-pentyn-3-yloxy]-1,2,5-thiadiazol-4-yloxy)-1-azabicyclo[2.2.1]heptane, oxalate] | – | 105 nM | 56 nM
22 | FC(F)(F)COc1nsnc1OC1CN2CCC1C2 (stereo not drawn) [Compound 40, Endo 3-(3-[2,2,2-trifluoroethyl-1-oxy]-1,2,5-thiadiazol-4-yloxy)-1-azabicyclo[2.2.1]heptane, oxalate] | – | 1.8 nM | 43 nM
